{"source": "the supplement of paper PMC10883282", "test_system": "MES-SA", "test": "relative viability vs DMSO control (72 h) (fraction); higher = more viable cells", "how_it_was_run": "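After seeding at densities set for 80–90% confluence in 384-well plates, sarcoma cell lines waited 24 h before 2.5 µl of serially diluted compound was added. Source plates held 10 mM down to 0.0002 mM. Plates were incubated 72 h at 37 °C with 5% CO2, with 0.1% DMSO vehicle and a 5 µM positive control, and relative viability was taken from ATPLite as percent growth averaged over up to triplicate wells, with 1 set as full and 0 as none.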", "note": "± gives the standard deviation of the averaged measurements."}
{"smiles": "CC(C)N1CCN(Cc2cnc(-c3cc(-c4cccc5[nH]ccc45)cc4[nH]ncc34)o2)CC1", "note": "[Nemiralisib]", "values": [{"measurement": "relative viability", "setting": "0.00017 µM", "value": "0.967 ± 0.032"}, {"measurement": "relative viability", "setting": "0.00051 µM", "value": "0.961 ± 0.022"}, {"measurement": "relative viability", "setting": "0.00152 µM", "value": "0.953 ± 0.05"}, {"measurement": "relative viability", "setting": "0.00457 µM", "value": "0.958 ± 0.05"}, {"measurement": "relative viability", "setting": "0.01372 µM", "value": "0.977 ± 0.033"}, {"measurement": "relative viability", "setting": "0.04115 µM", "value": "0.926 ± 0.039"}, {"measurement": "relative viability", "setting": "0.1235 µM", "value": "0.979 ± 0.047"}, {"measurement": "relative viability", "setting": "0.3704 µM", "value": "0.964 ± 0.043"}, {"measurement": "relative viability", "setting": "1.111 µM", "value": "0.911 ± 0.024"}, {"measurement": "relative viability", "setting": "3.333 µM", "value": "0.764 ± 0.028"}, {"measurement": "relative viability", "setting": "10 µM", "value": "0.486 ± 0.027"}]}
{"smiles": "Cc1ccc(NC(=O)c2ccc(CN3CCN(C)CC3)cc2)cc1Nc1nc(-c2cccnc2)cs1", "note": "[Masitinib]", "values": [{"measurement": "relative viability", "setting": "0.00017 µM", "value": "0.978 ± 0.013"}, {"measurement": "relative viability", "setting": "0.00051 µM", "value": "0.969 ± 0.014"}, {"measurement": "relative viability", "setting": "0.00152 µM", "value": "0.955 ± 0.021"}, {"measurement": "relative viability", "setting": "0.00457 µM", "value": "0.96 ± 0.028"}, {"measurement": "relative viability", "setting": "0.01372 µM", "value": "0.952 ± 0.011"}, {"measurement": "relative viability", "setting": "0.04115 µM", "value": "0.956 ± 0.015"}, {"measurement": "relative viability", "setting": "0.1235 µM", "value": "0.912 ± 0.025"}, {"measurement": "relative viability", "setting": "0.3704 µM", "value": "0.905 ± 0.026"}, {"measurement": "relative viability", "setting": "1.111 µM", "value": "0.735 ± 0.029"}, {"measurement": "relative viability", "setting": "3.333 µM", "value": "0.445 ± 0.017"}, {"measurement": "relative viability", "setting": "10 µM", "value": "0.11 ± 0.011"}]}
{"smiles": "CCc1cc2c(cc1N1CCC(N3CCOCC3)CC1)C(C)(C)c1[nH]c3cc(C#N)ccc3c1C2=O", "note": "[Alectinib]", "values": [{"measurement": "relative viability", "setting": "0.00017 µM", "value": "0.896 ± 0.018"}, {"measurement": "relative viability", "setting": "0.00051 µM", "value": "0.91 ± 0.026"}, {"measurement": "relative viability", "setting": "0.00152 µM", "value": "0.895 ± 0.045"}, {"measurement": "relative viability", "setting": "0.00457 µM", "value": "0.893 ± 0.036"}, {"measurement": "relative viability", "setting": "0.01372 µM", "value": "0.889 ± 0.068"}, {"measurement": "relative viability", "setting": "0.04115 µM", "value": "0.944 ± 0.035"}, {"measurement": "relative viability", "setting": "0.1235 µM", "value": "0.953 ± 0.035"}, {"measurement": "relative viability", "setting": "0.3704 µM", "value": "0.9459 ± 0.0094"}, {"measurement": "relative viability", "setting": "1.111 µM", "value": "0.942 ± 0.018"}, {"measurement": "relative viability", "setting": "3.333 µM", "value": "0.968 ± 0.049"}, {"measurement": "relative viability", "setting": "10 µM", "value": "0.959 ± 0.035"}]}
{"smiles": "COc1cc2nccc(Oc3ccc(NC(=O)Nc4cc(C)on4)c(Cl)c3)c2cc1OC", "note": "[Tivozanib]", "values": [{"measurement": "relative viability", "setting": "0.00017 µM", "value": "0.914 ± 0.018"}, {"measurement": "relative viability", "setting": "0.00051 µM", "value": "0.926 ± 0.051"}, {"measurement": "relative viability", "setting": "0.00152 µM", "value": "0.925 ± 0.036"}, {"measurement": "relative viability", "setting": "0.00457 µM", "value": "0.932 ± 0.035"}, {"measurement": "relative viability", "setting": "0.01372 µM", "value": "0.94 ± 0.0096"}, {"measurement": "relative viability", "setting": "0.04115 µM", "value": "0.944 ± 0.035"}, {"measurement": "relative viability", "setting": "0.1235 µM", "value": "0.923 ± 0.013"}, {"measurement": "relative viability", "setting": "0.3704 µM", "value": "0.955 ± 0.025"}, {"measurement": "relative viability", "setting": "1.111 µM", "value": "0.977 ± 0.021"}, {"measurement": "relative viability", "setting": "3.333 µM", "value": "0.697 ± 0.041"}, {"measurement": "relative viability", "setting": "10 µM", "value": "0.231 ± 0.0086"}]}
